Data published in ChEMBL document CHEMBL1142398, “Chemical stability of the peroxide bond enables diversified synthesis of potent tetraoxane antimalarials” (J Med Chem, 2008).

How the values were obtained:
Plasmodium falciparum [1] = test: microbe, parasite or virus in culture; settings: W2
Description: Antimalarial activity against Plasmodium falciparum W2

Plasmodium falciparum [2] = test: microbe, parasite or virus in culture; settings: D6
Description: Antimalarial activity against Plasmodium falciparum D6

[3] = Metabolic stability assessed as half life in mouse liver microsomes; format: ADME, Microsome
[4] = Metabolic stability assessed as half life in human liver microsomes; format: ADME, Microsome
Plasmodium falciparum [5] = test: microbe, parasite or virus in culture; settings: TM91C235
Description: Antimalarial activity against multidrug-resistant Plasmodium falciparum TM91C235

Plasmodium berghei [6] = test: Antimalarial activity against Plasmodium berghei KBG173 infected CD1 mice (Mus musculus) at 150 mg/kg/day subcutaneous dose as survival time after 3-5 days; format: functional
Plasmodium berghei [7] = test: Antimalarial activity against Plasmodium berghei KBG173 infected CD1 mice (Mus musculus) on subcutaneous dose after 3-5 days; format: functional
Plasmodium berghei [8] = test: Antimalarial activity against Plasmodium berghei KBG173 infected CD1 mice (Mus musculus) at 37.5 mg/kg/day subcutaneous dose as survival time after 3-5 days; format: functional
Plasmodium berghei [9] = test: Antimalarial activity against Plasmodium berghei KBG173 infected CD1 mice (Mus musculus) at 9.3 mg/kg/day subcutaneous dose as survival time after 3-5 days; format: functional
Plasmodium berghei [10] = test: Antimalarial activity against Plasmodium berghei KBG173 infected CD1 mice (Mus musculus) at 300 mg/kg/day subcutaneous dose as survival time after 3-5 days; format: functional

Compound	IC50 (Plasmodium falciparum [1]) [µM]	IC50 (Plasmodium falciparum [2]) [µM]	half-life [3] [min]	half-life [4] [min]	IC90 (Plasmodium falciparum [1]) [µM]	IC50 (Plasmodium falciparum [5]) [µM]	IC90 (Plasmodium falciparum [5]) [µM]	IC90 (Plasmodium falciparum [2]) [µM]	Survival (Plasmodium berghei [6]) [days]	MCD (Plasmodium berghei [7])	Survival (Plasmodium berghei [8]) [days]	Survival (Plasmodium berghei [9]) [days]	Survival (Plasmodium berghei [10]) [days]
CC(=O)O[C@H]1C[C@H]2[C@@H]([C@H](OC(C)=O)C[C@@H]3CC4(CC[C@@]32C)OOC2(CCCCC2)OO4)[C@@H]2CC[C@H]([C@H](C)CCC(=O)O)[C@@]12C	0.0192	0.0306											
CC(=O)O[C@H]1C[C@H]2[C@@H]([C@H](OC(C)=O)C[C@@H]3CC4(CC[C@@]32C)OOC2(CCCCC2)OO4)[C@@H]2CC[C@H]([C@H](C)CCCNCCN(C)C)[C@@]12C	0.0185	0.0468	> 60	> 60	0.0654	0.0497	0.0881	0.11					
CCCNC(=O)C1CCC2(CC1)OOC1(CCCCC1)OO2	0.022	0.0193			0.0445	0.0253	0.0539	0.0492					
C1CCC(NCC2CCC3(CC2)OOC2(CCCCC2)OO3)CC1	0.00617	0.0112	43.9	15.9	0.0177	0.0108	0.0139	0.014	29	<=37.5 mg/kg/day	22.6	13.4	>31
CC(C)NCC1CCC2(CC1)OOC1(CCCCC1)OO2	0.00754	0.0094	9.9	38.7	0.0229	0.00927	0.0167	0.0145	23.6		18.2	11.8	23.2
c1ccc(CNCC2CCC3(CC2)OOC2(CCCCC2)OO3)cc1	0.00819	0.0138	3.5	42	0.0206	0.0139	0.0395	0.0345					
OCC1CCC2(CC1)OOC1(CCCCC1)OO2	0.00654	0.0152			0.0116	0.0126	0.0237	0.0225					
CCCNCCC[C@@H](C)[C@H]1CC[C@H]2[C@@H]3[C@H](OC(C)=O)C[C@@H]4CC5(CC[C@]4(C)[C@H]3C[C@H](OC(C)=O)[C@]12C)OOC1(CCCCC1)OO5	0.0111	0.0241	> 60	> 60	0.0269	0.0208	0.0739	0.0493					
NCC1CCC2(CC1)OOC1(CCCCC1)OO2	0.00779	0.0128			0.016	0.0198	0.029	0.0241	>31	<=37.5 mg/kg/day	24.6	16.6	>31
CC(=O)O[C@H]1C[C@H]2[C@@H]([C@H](OC(C)=O)C[C@@H]3CC4(CC[C@@]32C)OOC2(CCCCC2)OO4)[C@@H]2CC[C@H]([C@H](C)CCCO)[C@@]12C	0.00977	0.0156			0.0242	0.0181	0.0272	0.0287					
